Measurements: article PMC11445910 (International Journal of Veterinary Science and Medicine, 2024)
≈ marks a conversion by molar mass, not a printed value. Where two headings read alike, the source gives them in different places.

Tests used:
FMDV serotype A (NP05) [1] = assay: microbe, parasite or virus in culture; type: cell-based; conditions: Foot-and-mouth disease virus, BHK-21, read-out: Post-viral entry EC50
SARS-CoV-2 = conditions: read-out: EC50 against SARS-CoV-2; cited from earlier work
FMDV serotype A (NP05) [2] = type: cell-based, Foot-and-mouth disease virus
FMDV serotype A (NP05) [3] = type: cell-based, Foot-and-mouth disease virus; remark: listed apart in the source
FMDV serotype A (NP05) [4] = assay: microbe, parasite or virus in culture; type: cell-based, Foot-and-mouth disease virus
RdRp = conditions: read-out: Binding affinity (RdRp inhibition using surface plasmon resonance assay); cited from earlier work
FMDV serotype A (NP05) [5] = assay: microbe, parasite or virus in culture; type: cell-based; conditions: Foot-and-mouth disease virus, BHK-21, read-out: Prophylactic EC50
FMDV serotype A (NP05) [6] = assay: microbe, parasite or virus in culture; type: cell-based, Foot-and-mouth disease virus; remark: listed apart in the source
FMDV 3Dpol = type: cell-based, Foot-and-mouth disease virus
FMDV serotype A (NP05) [7] = type: cell-based, Foot-and-mouth disease virus; remark: listed apart in the source
[8] = tested on: papain-like protease 2 protein; conditions: read-out: IC50 (papain-like protease 2 protein inhibition); cited from earlier work
HCoV-OC43 = conditions: read-out: EC50 against HCoV-OC43; cited from earlier work
HCoV-NL63 = conditions: read-out: EC50 against HCoV-NL63; cited from earlier work
[9] = tested on: HIV reverse transcriptase; conditions: cited from earlier work
EBOV = conditions: read-out: IC50 (viral-like particle entry); cited from earlier work
MERS-CoV = conditions: read-out: EC50 against MERS-CoV; cited from earlier work
MHV-A59 = conditions: read-out: EC50 against MHV-A59; cited from earlier work
ZIKV NS5 RNA polymerase = conditions: read-out: IC50 (NS5 polymerase inhibition); cited from earlier work
enterovirus (EV) A71 = conditions: read-out: EC50 against enterovirus (EV) A71; cited from earlier work
Influenza virus type A = conditions: cited from earlier work
RSV = conditions: cited from earlier work
FMDV serotype A = conditions: cited from earlier work
HBV = conditions: read-out: IC50 against HBV; cited from earlier work
Influenza virus H1N1 = conditions: cited from earlier work
CHIKV = conditions: read-out: EC50 against CHIKV; cited from earlier work
[10] = Foot-and-mouth disease virus, BHK-21, read-out: Pre-viral entry EC50
[11] = Foot-and-mouth disease virus, BHK-21, read-out: Penetration EC50

## CC[C@H]1CN2CCc3cc(OC)c(OC)cc3[C@@H]2C[C@@H]1C[C@H]1NCCc2cc(O)c(OC)cc21 [CPL, Cephaeline]
FMDV serotype A (NP05) [1]
  EC50: 50 ± 130 nM
SARS-CoV-2
  EC50: 12.3 nM
FMDV serotype A (NP05) [2]
  Viral load reduction (viral copy numbers): dose-dependent manner
FMDV serotype A (NP05) [3]
  % Virucidal effect (Virus titre reduction of log TCID50/ml), High dose: 79.59%
  % Virucidal effect (Virus titre reduction of log TCID50/ml), Low dose: 68.35%
  log viral titre after treatment, high dose: 1.00
  log viral titre after treatment, low dose: 1.00
FMDV serotype A (NP05) [4]; [10]
  EC50: 100 ± 100 nM
RdRp
  Kd: 8900 nM
FMDV serotype A (NP05) [5]
  EC50: 230 ± 650 nM
FMDV serotype A (NP05) [6]; [11]
  EC50: 50 nM
FMDV 3Dpol
  Negative-stranded RNA production: affected the production of negative-stranded RNA
FMDV serotype A (NP05) [7]
  Effect on viral attachment (binding of FMDV): neither CPL nor EMT impeded the binding of FMDV

## O=C1c2ccccc2-n2c1nc1ccccc1c2=O [Tryptanthrin (TTT), Tryptanthrin]
[8]
  IC50: 60 nM

## CC[C@H]1CN2CCc3cc(OC)c(OC)cc3[C@@H]2C[C@@H]1C[C@H]1NCCc2cc(OC)c(OC)cc21 [EMT, Emetine, reference compound]
HCoV-OC43
  EC50: 300 nM
FMDV serotype A (NP05) [1]
  EC50: 240 ± 630 nM
SARS-CoV-2
  EC50: 7.71 nM
FMDV serotype A (NP05) [2]
  Viral load reduction (viral copy numbers): dose-dependent manner
HCoV-NL63
  EC50: 1430 nM
FMDV serotype A (NP05) [3]
  % Virucidal effect (Virus titre reduction of log TCID50/ml), Low dose: 32.28%
  log viral titre after treatment, high dose: 2.16
  log viral titre after treatment, low dose: 2.14
FMDV serotype A (NP05) [4]; [10]
  EC50: 130 nM
[9]
  Reduction of HIV reverse transcriptase activity: approximately 50%
EBOV
  IC50: 10200 nM
FMDV serotype A (NP05) [5]
  EC50: 640 ± 200 nM
MERS-CoV
  EC50: 340 nM
MHV-A59
  EC50: 120 nM
FMDV serotype A (NP05) [6]; [11]
  EC50: 120 nM
FMDV 3Dpol
  Negative-stranded RNA production: affected the production of negative-stranded RNA
ZIKV NS5 RNA polymerase
  IC50: 121 nM
FMDV serotype A (NP05) [7]
  Effect on viral attachment (binding of FMDV): neither CPL nor EMT impeded the binding of FMDV
Enterovirus (EV) A71
  EC50: 40 nM

## Strictosamide [Strictosamide (STM)]
Influenza virus type A
  IC50 against influenza virus type A: IC50 of 25.68 µg/ml in MDCK cells IC50 of 12.50 µg/ml in Hep-2 cells
RSV
  IC50 against RSV: IC50 of 25.68 µg/ml in MDCK cells IC50 of 12.50 µg/ml in Hep-2 cells

## NC(=O)c1ncc[nH]c1=O [T-1105]
FMDV serotype A
  IC50 against FMDV serotype A: 1.11 µg/mL (≈ 7.98 µM)
FMDV serotype A; read-out: IC50 against FMDV serotype A
  IC50: 7970 nM

## C[C@@H]1CC[C@@]2(NC1)O[C@H]1C[C@H]3[C@@H]4CC=C5C[C@@H](O[C@@H]6O[C@H](CO)[C@@H](O[C@@H]7O[C@@H](C)[C@H](O)[C@@H](O)[C@H]7O)[C@H](O)[C@H]6O[C@@H]6O[C@@H](C)[C@H](O)[C@@H](O)[C@H]6O)CC[C@]5(C)[C@H]4CC[C@]3(C)[C@H]1[C@@H]2C [Solamargine (SLG), Solamargine]
HBV
  IC50: 2170 nM

## C[C@H]1[C@H]2CC[C@H]3[C@@H]4CC=C5C[C@@H](N(C)C)CC[C@]5(C)[C@H]4CC[C@]23CN1C [Conessine (CNS), Conessine]
HCoV-OC43
  EC50: 2340 nM
HCoV-NL63
  EC50: 10700 nM
MERS-CoV
  EC50: 4980 nM
MHV-A59
  EC50: 11500 nM

## CCOC(=O)/C=C/[C@H](C[C@@H]1CCNC1=O)NC(=O)[C@@H](CC(=O)[C@@H](NC(=O)c1cc(C)on1)C(C)C)Cc1ccc(F)cc1 [RPV, Rupintrivir]
FMDV serotype A (NP05) [1]
  EC50: 3430 ± 540 nM
FMDV serotype A (NP05) [4]; read-out: Pre-viral entry EC50
  EC50: 10400 ± 1020 nM
FMDV serotype A (NP05) [6]; read-out: Penetration EC50
  EC50: 2060 ± 310 nM

## C/C=C1/CN2[C@@H]3C[C@@]45c6ccccc6N[C@]4(O3)[C@@H]2C[C@@H]1[C@H]5C(=O)OC [Picrinine (PCN), Picrinine]
Influenza virus H1N1
  Reduction of haemagglutination titres: Reduction of haemagglutination titres at 1/480; 12.5 mg/kg of Alstonia scholaris (L.) crude extract

## C[C@H]1CC[C@]2(NC1)O[C@H]1C[C@H]3[C@@H]4CC[C@H]5C[C@@H](O)CC[C@]5(C)[C@H]4CC[C@]3(C)[C@H]1[C@@H]2C [Tomatidine (TMD), Tomatidine]
CHIKV
  EC50: 1300 nM
